Results on 20 molecules are retold here after PubChem BioAssay AID330 (DTP/NCI, 2004).

This assay has as its system P388 leukemia ip, CD2F1 mice, survival T/C. The assay is described as follows: NCI In Vivo Anticancer Drug Screen. Data for tumor model P388 Leukemia (intraperitoneal) in CD2F1 (CDF1) mice. Particulars: endpoint: median survival time, higher = longer survival. An outline of the steps: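 Mice carrying the transplanted tumor received test compound or vehicle. Survival was recorded in each group, and the value is the treated-group measurement divided by that of the vehicle-treated control group.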

Setting [1] is: dose: 50.0 mg/kg/injection, schedule: Q01DX009 (ip), vehicle: saline with Tween-80.
Where [2] appears, read: dose: 100.0 mg/kg/injection, schedule: Q01DX009 (ip), vehicle: saline with Tween-80.
[3] abbreviates: dose: 50.0 mg/kg/injection, schedule: Q01DX009 (ip), vehicle: Klucel (hydroxypropylcellulose) (HPC).
The mark [4] stands for this setting: dose: 100.0 mg/kg/injection, schedule: Q01DX009 (ip), vehicle: Klucel (hydroxypropylcellulose) (HPC).
Where [5] appears, read: dose: 200.0 mg/kg/injection, schedule: Q01DX009 (ip), vehicle: Klucel (hydroxypropylcellulose) (HPC).
Setting [6] is: dose: 25.0 mg/kg/injection, schedule: Q01DX005 (ip), vehicle: Klucel (hydroxypropylcellulose) (HPC).
[7] abbreviates: dose: 50.0 mg/kg/injection, schedule: Q01DX005 (ip), vehicle: Klucel (hydroxypropylcellulose) (HPC).
Setting [8] is: dose: 100.0 mg/kg/injection, schedule: Q01DX005 (ip), vehicle: Klucel (hydroxypropylcellulose) (HPC).
Setting [9] is: dose: 25.0 mg/kg/injection, schedule: Q01DX009 (ip), vehicle: saline with Tween-80.
Where [10] appears, read: dose: 200.0 mg/kg/injection, schedule: Q01DX009 (ip), vehicle: saline with Tween-80.
Setting [11] is: dose: 50.0 mg/kg/injection, schedule: Q01DX009 (ip), vehicle: saline.
Where [12] appears, read: dose: 100.0 mg/kg/injection, schedule: Q01DX009 (ip), vehicle: saline.
The mark [13] stands for this setting: dose: 200.0 mg/kg/injection, schedule: Q01DX009 (ip), vehicle: saline.
The mark [14] stands for this setting: dose: 60.0 mg/kg/injection, schedule: Q01DX005 (ip), vehicle: Klucel (hydroxypropylcellulose) (HPC).
Where [15] appears, read: dose: 120.0 mg/kg/injection, schedule: Q01DX005 (ip), vehicle: Klucel (hydroxypropylcellulose) (HPC).
Setting [16] is: dose: 240.0 mg/kg/injection, schedule: Q01DX005 (ip), vehicle: Klucel (hydroxypropylcellulose) (HPC).

“And” between values parts separate entries of the source, which are not always exact repeats. Equal values may be shown once. Inconclusive results and toxic doses are left out.

Turning to `O=C(Nc1ccc(Cl)c(Cl)c1)O/N=C/c1ccncc1`, the T/C (dose: 50.0 mg/kg/injection, schedule: Q01DX009 (ip), vehicle: saline + alcohol) was 96 % of control; the T/C (dose: 100.0 mg/kg/injection, schedule: Q01DX009 (ip), vehicle: saline + alcohol) is 89 % of control; the T/C (dose: 200.0 mg/kg/injection, schedule: Q01DX009 (ip), vehicle: saline + alcohol) is 89 % of control.
In the case of `c1ccc2cc(N=NNc3ccc4ccccc4c3)ccc2c1`, the T/C under setting [1] is 122 % of control; the T/C (dose: 50.0 mg/kg/injection, schedule: Q04DX003 (ip), vehicle: saline with Tween-80) was 90 % of control; the T/C under setting [2] is 95 % of control; the T/C (dose: 100.0 mg/kg/injection, schedule: Q04DX003 (ip), vehicle: saline with Tween-80) is 100 % of control; the T/C (dose: 200.0 mg/kg/injection, schedule: Q04DX003 (ip), vehicle: saline with Tween-80) was 109 % of control.
Turning to `O=C1c2c3c(c4c(c2C(=O)c2c5c(c6c(c21)CCC6)CCC5)CCCC4)CCCC3`, the T/C (dose: 20.0 mg/kg/injection, schedule: Q01DX009 (ip), vehicle: saline with Tween-80) is 100 % of control; the T/C (dose: 40.0 mg/kg/injection, schedule: Q01DX009 (ip), vehicle: saline with Tween-80) is 99 % of control; the T/C (dose: 80.0 mg/kg/injection, schedule: Q01DX009 (ip), vehicle: saline with Tween-80) was 93 % of control.
Consider `O=C1CC2(CCCC2)C(=O)N1c1ccc(N2C(=O)CC3(CCCC3)C2=O)cc1`, for which the T/C was 96 % of control under setting [3], 99 % of control under setting [4] and 96 % of control under setting [5].
Consider `Cc1ccc(C2=NN(c3ccccc3)C(c3ccccc3)C2NC2CCCCC2)cc1` (stereo not given), for which the T/C by setting is: under setting [6], 90 % of control; under setting [7], 90 % of control; under setting [8], 89 % of control.
As for `O=C(Nc1ccc(N=C(c2ccccc2)N2CCOCC2)cc1)c1ccc(C(=O)Nc2ccc(N=C(c3ccccc3)N3CCOCC3)cc2)cc1`, the T/C under setting [6] was 101 % of control; the T/C under setting [7] is 101 % of control; the T/C under setting [8] is 93 % of control; the T/C (dose: 200.0 mg/kg/injection, schedule: Q01DX005 (ip), vehicle: Klucel (hydroxypropylcellulose) (HPC)) is 96 % of control.
Regarding `CNc1nncc(=O)[nH]1`, the T/C under setting [3] was 107 % of control, the T/C under setting [4] was 107 % of control and the T/C under setting [5] was 99 % of control.
`O=C1Cn2c(cc(=O)c3ccccc32)O1`: the T/C was 109 % of control (dose: 25.0 mg/kg/injection, schedule: Q01DX001 (ip), vehicle: saline with Tween-80); 116 % of control (dose: 50.0 mg/kg/injection, schedule: Q01DX001 (ip), vehicle: saline with Tween-80); 116 % of control (dose: 100.0 mg/kg/injection, schedule: Q01DX001 (ip), vehicle: saline with Tween-80).
On to `C=CCOc1cc2c(cc1C(C)c1ccc(OCC)c(C)c1)OCO2` (stereo not given), for which the T/C was 106 % of control (dose: 50.0 mg/kg/injection, schedule: Q01DX005 (ip), vehicle: saline with Tween-80); 103 % of control (dose: 100.0 mg/kg/injection, schedule: Q01DX005 (ip), vehicle: saline with Tween-80); 106 % of control (dose: 200.0 mg/kg/injection, schedule: Q01DX005 (ip), vehicle: saline with Tween-80).
As to `OCC(O)CCBr` (stereo not given), the T/C by setting is: (dose: 12.5 mg/kg/injection, schedule: Q01DX009 (ip), vehicle: saline with Tween-80) 107 % of control; under setting [9], 107 % of control; under setting [1], 114 % of control and 96 % of control; under setting [2], 89 % of control; (dose: 100.0 mg/kg/injection, schedule: Q04DX003 (ip), vehicle: saline) 118 % of control; under setting [10], 95 % of control. For the same molecule, the T/C was 122 % of control (dose: 200.0 mg/kg/injection, schedule: Q04DX003 (ip), vehicle: saline); 159 % of control (dose: 264.0 mg/kg/injection, schedule: Q01DX009 (ip), vehicle: saline sonified); 110 % of control (dose: 264.0 mg/kg/injection, schedule: Q04DX003 (ip), vehicle: saline); 181 % of control (dose: 400.0 mg/kg/injection, schedule: Q01DX009 (ip), vehicle: saline sonified); 186 % of control (dose: 600.0 mg/kg/injection, schedule: Q01DX009 (ip), vehicle: saline sonified); 115 % of control (dose: 600.0 mg/kg/injection, schedule: Q04DX003 (ip), vehicle: saline).
As for `CC1(C)CC(OS(=O)(=O)c2ccccc2)CC(C)(C)N1O`, the T/C reads like this: (dose: 100.0 mg/kg/injection, schedule: Q01DX001 (ip), vehicle: Klucel (hydroxypropylcellulose) (HPC)) 97 % of control; (dose: 200.0 mg/kg/injection, schedule: Q01DX001 (ip), vehicle: Klucel (hydroxypropylcellulose) (HPC)) 97 % of control; (dose: 400.0 mg/kg/injection, schedule: Q01DX001 (ip), vehicle: Klucel (hydroxypropylcellulose) (HPC)) 97 % of control.
Turning to `CC(=O)Oc1ccc2ccccc2c1-c1ccccn1`, the T/C reads like this: (dose: 12.5 mg/kg/injection, schedule: Q01DX001 (ip), vehicle: saline + alcohol) 101 % of control; (dose: 25.0 mg/kg/injection, schedule: Q01DX001 (ip), vehicle: saline + alcohol) 99 % of control; (dose: 50.0 mg/kg/injection, schedule: Q01DX001 (ip), vehicle: saline + alcohol) 100 % of control.
Take `C=C1C(=O)C23C(OC(=O)/C=C/C)C1CCC2C12COC3(O)C(O)C1C(C)(C)CCC2O` (stereo not given): the T/C (dose: 3.75 mg/kg/injection, schedule: Q01DX009 (ip), vehicle: saline with Tween-80) is 103 % of control; the T/C (dose: 7.5 mg/kg/injection, schedule: Q01DX009 (ip), vehicle: saline with Tween-80) is 108 % of control; the T/C (dose: 15.0 mg/kg/injection, schedule: Q01DX009 (ip), vehicle: saline with Tween-80) was 112 % of control.
`Cc1ccc(C(CC(=O)O)C(N)C(=O)O)cc1` (stereo not given): the T/C reads like this: (dose: 12.5 mg/kg/injection, schedule: Q01DX009 (ip), vehicle: saline) 98 % of control; (dose: 25.0 mg/kg/injection, schedule: Q01DX009 (ip), vehicle: saline) 88 % of control; under setting [11], 95 % of control and 96 % of control; under setting [12], 100 % of control; under setting [13], 95 % of control.
On to `CCN(CC)CCOCCO`, for which the T/C runs as follows: under setting [11], 100 % of control; under setting [12], 109 % of control; under setting [13], 100 % of control.
For the molecule `CCCCCC#CC(=O)OC`, the T/C is 109 % of control under setting [9], 109 % of control under setting [1], 104 % of control under setting [2] and 118 % of control under setting [10].
In the case of `O=C(COc1cccc2oc3ccccc3c(=O)c12)N/N=C/c1ccc(N(CCCl)CCCl)cc1`, the T/C was 97 % of control under setting [14], 96 % of control under setting [15] and 95 % of control under setting [16].
As to `C=C1C(=O)OC2/C=C(\C)CC(O)/C=C(/CO)CC(OC(=O)/C(C)=C/C)C12` (stereo not given), the T/C reads like this: (dose: 7.5 mg/kg/injection, schedule: Q01DX009 (ip), vehicle: saline + alcohol) 111 % of control; (dose: 10.0 mg/kg/injection, schedule: Q01DX009 (ip), vehicle: saline + alcohol) 121 % of control.
With `O=S(=O)(O)O.[Cu+2].[NH-]CCC[N-]CCCC[N-]CCC[NH-]`, the T/C reads like this: (dose: 6.25 mg/kg/injection, schedule: Q01DX001 (ip), vehicle: saline) 108 % of control; (dose: 12.5 mg/kg/injection, schedule: Q01DX001 (ip), vehicle: saline) 113 % of control and 92 % of control; (dose: 25.0 mg/kg/injection, schedule: Q01DX001 (ip), vehicle: saline) 113 % of control; (dose: 50.0 mg/kg/injection, schedule: Q01DX001 (ip), vehicle: saline) 106 % of control.
Consider `O=c1c2ccccc2c2sc3c4ccccc4c(=O)c3c12`, for which the T/C runs as follows: under setting [14], 104 % of control; under setting [15], 99 % of control; under setting [16], 97 % of control.
